Reference: the NIST ThermoML archive (doi:10.1016/j.tca.2014.11.027)
Numbers after ± are expanded uncertainties.

Conditions: Liquid; Gas Chromatography

SMILES: CCCCCOP(=O)(CCCC)OCCCCC [dipentyl butylphosphonate]
- Normal boiling temperature: 319.84 ± 2 °C

SMILES: CCCCCCP(=O)(OCCCCC)OCCCCC [dipentyl hexylphosphonate]
- Normal boiling temperature: 344.43 ± 2 °C

SMILES: CCCCCCCCP(=O)(OCCCC)OCCCC [dibutyl octylphosphonate]
- Normal boiling temperature: 332.96 ± 2 °C

SMILES: CCCCCP(=O)(OCCC(C)C)OCCC(C)C [diisopentyl pentylphosphonate]
- Normal boiling temperature: 321.52 ± 2 °C

SMILES: CCCCCP(=O)(OCCCC)OCCCC [dibutyl pentylphosphonate]
- Normal boiling temperature: 306.70 ± 2 °C

SMILES: CCCCP(=O)(OCCC(C)C)OCCC(C)C [diisopentyl butylphosphonate]
- Normal boiling temperature: 306.90 ± 2 °C

SMILES: CCCCOP(=O)(CCCC)OCCCC [dibutyl butanephosphonate]
- Normal boiling temperature: 292.92 ± 2 °C

SMILES: CCCCCCP(=O)(OCCCC)OCCCC [dibutyl hexylphosphonate]
- Normal boiling temperature: 319.92 ± 2 °C

SMILES: CCCCCOP(=O)(CCCCC)OCCCCC [dipentyl pentylphosphonate]
- Normal boiling temperature: 332.64 ± 2 °C

SMILES: CCCCCCP(=O)(OCCC(C)C)OCCC(C)C [diisopentyl hexylphosphonate]
- Normal boiling temperature: 332.33 ± 2 °C
